Source: patent US7476383B2, “Antibody selective for DR4 and uses thereof” (The UAB Research Foundation, priority 2000, dated 2009)
Blank lines part the entries; values can stand above or below the molecule they belong to. Residues, ends and D or L forms follow the SMILES beside them. *: point of attachment. Cbz = O=C(OCc1ccccc1)*; CH2F = FC*

Tests used:
2LMP xenografts = assay: TUNEL analysis of apoptosis in xenografts; format: in vivo, athymic nude mice; conditions: day 14; untreated 1%
Description: One group of mice was untreated. The xeno grafts were dissected for the study of apoptosis on day 14 after tumor cell injection. The reason for the substantial reduction in treatment intensity compared to our standard treatment protocol was to allow adequate tumor tissue for analysis on day 14. Tunel assay for apoptosis in tumor xenografts was performed as follows. Five-micron paraffin sections of tissue were mounted on Superfrost/Plus slides and heated at 58° C. for 1 h. Tissue sections were deparaffinized in three changes of xylene and rehydrated with one change of absolute ethanol, 95% ethanol, and 70% ethanol, each in 5-min increments. Then, the sections were placed in Tris-buffered saline (0.5M Tris base, 0.15 M NaCl, 0.0002% Triton X-100, pH 7.6). Apoptotic nuclei were detected using an Apop Tag Peroxidase kit (Intergen, Purchase, N.Y.). Proteinase K (20 μg/ml in distilled deionized H2O) was added to the tissue specimens and incubated at room temperature for 15 min. Endogenous peroxidases were quenched with an aqueous solution of 3% hydrogen peroxide for 5 min. […] Approximately 10 random fields were evaluated for percentage of Tunel stained and percentage of intensely stained apoptotic bodies throughout the tissue.

[1] = system: 2LMP human breast cancer xenografts; assay: 2LMP breast cancer xenografts in athymic nude mice; format: in vivo
Description: Nude mice were inoculated s.c. with the human breast cancer cell line, 2LMP. Treatment with i.p. doses of 200 μg of 2E12 occurred on days 7, 10, 14, 17, 21, and 24 after tumor cell injection. Animals received i.v. adriamycin (doxorubicin) (6 mg/kg) on days 8, 12, and 16.
Athymic nude mice were injected s.c. with 3×10^7 2LMP cells. […] The growth of tumors was monitored over time. […] Tumor size and regression rates were determined.
Data from 6 independent experiments were analyzed by individual experiment. Treatment combinations were compared with respect to in vivo anti-tumor efficacy, i.e., inhibition of tumor growth, which was measured as three endpoints; extension of tumor doubling times, percentage of tumor regressions, and growth rates over time. The actual number of days at which the tumor doubled in surface area (product of two diameters) relative to baseline on day 7 after tumor cell injection was used in the doubling time analysis. The nonparametric Kruskal-Wallis test was used for median tumor doubling time comparisons between treatments. Fisher's exact test was used to compare the proportions of tumor regressions and relapse-free regressions across treatment groups. To determine if any combination therapy produced significant synergistic inhibition of tumor growth, i.e., more than additive, the growth curves from the serial area measurements were compared using a linear mixed model approach over the first 3 weeks after start of therapy (Lindsey, J. K. Models for Repeated Measurements, pp. 100-142, Oxford, 1993). To test for synergistic effects of the combination therapies, an interaction term was included in the model. If the interaction term was significant and the effect was inhibition of growth at a rate greater than additive then the interaction was considered synergistic.
A total of 166 animals, 10 treatment groups, and 6 independent experiments were included in the aggregate analysis. Treatment combinations were compared with respect to in vivo anti-tumor efficacy. The median tumor doubling times were analyzed using the Kruskal-Wallis test and Fisher's exact test was used to compare the proportions of tumor regressions and relapse-free regressions across treatment groups.

Jurkat cells = assay: Jurkat cell viability (ATPLite, MTT, PI exclusion); format: cell-based, human; conditions: 50 ng/ml TRA-8 overnight
Description: (§1) Cell viability is determined using (1) the ATPLite kit according to the manufacturer's instructions (Packard Instruments, Meriden, Conn.); (2) the MTT Cell proliferation/viability kit (Sigma); or (3) PI staining of dead cells and analyzed by flow cytometry. At end of culture, cells are stained with 10 μg/ml PI and PI negative cells are gated as viable cells. For analysis of condensed nuclei of hepatocytes, cells are stained with 10 ng/ml […] (Molecular Probes) and analyzed by flow cytometry.

MMP-1 and MMP-3 = assay: MMP ELISA of RA synovial cell supernatants; format: cell-based, human; conditions: RA synovial cells, overnight
Description: Thus, it is possible that TRAIL, like TNF-α, may serve as a pro-inflammatory cytokine. […] The levels of the MMP-1 and MMP-3 in the culture supernatants are determined by the ELISA kits.

NF-κb = assay: Gel-shift assay in RA synovial cells; format: cell-based, human; conditions: 50 ng/ml TRAIL, Fas ligand or TRA-8, 20 ng/ml TNF-a
Description: There is considerable evidence to support the concept that there are close links between the signaling of apoptosis and the signaling of proliferation (45). It has been established that DR5 is able to activate a NF-kb pathway in addition to apoptosis signaling transduction, and that NF-κb activation may be able to transduce an anti-apoptosis signal. Therefore a gel-shift assay is carried out. […] The nuclear extracts are prepared and incubated with the […] [^32P]-labeled oligo-DNA probe. The results are analyzed using the cyclone phospha-imager (TopCount NXT, Packard Instrument Company, CT).

H-9 cells = assay: Apoptosis by ATPLite, overnight; format: cell-based, human
Description: as §1

Daudi = assay: Apoptosis by ATPLite, overnight; format: cell-based, human; conditions: B lymphoma line Daudi
Description: as §1

SKW6.4, EB-3, and Raji = assay: Apoptosis by ATPLite, overnight; format: cell-based, human; conditions: B lymphoma lines SKW6.4, EB-3, Raji
Description: as §1

[2] = system: Primary peripheral blood T cells; assay: Apoptosis by ATPLite, overnight; format: cell-based, human
Description: as §1

Hs683 and U251-MG = assay: Apoptosis by ATPLite, overnight; format: cell-based, human; conditions: glioma lines Hs683 and U251-MG
Description: as §1

primary B cells = assay: Apoptosis by ATPLite, overnight; format: cell-based, human
Description: as §1

Molt-4 and U937 cells = assay: Apoptosis by ATPLite, overnight; format: cell-based, human
Description: as §1

Jurkat and CEM-6 = assay: Apoptosis by ATPLite, overnight; format: cell-based, human
Description: as §1

U87, U937 and Molt-4 = assay: Apoptosis by ATPLite, overnight; format: cell-based, human; conditions: glioma line U87, hematopoietic lines U937 and Molt-4
Description: as §1

DR4 = target: T1, DR4 (Homo sapiens, UniProt O00220); assay: ELISA binding to DR4-Ig fusion protein; conditions: ELISA plates coated with DR4/hIgG1
T1 construct: fusion protein comprising the extracellular domain of human DR5 or DR4 and the Fc region of human IgG1
T1 sequence (O00220 24-239 limits assumed): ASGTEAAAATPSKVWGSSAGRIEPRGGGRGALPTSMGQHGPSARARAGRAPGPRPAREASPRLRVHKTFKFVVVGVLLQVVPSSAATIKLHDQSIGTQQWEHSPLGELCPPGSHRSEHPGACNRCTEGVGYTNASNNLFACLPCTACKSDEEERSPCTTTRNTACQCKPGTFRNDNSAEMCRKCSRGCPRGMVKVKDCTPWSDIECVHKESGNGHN
Description: ELISA plates are coated with 2 μg/ml of DR4-Ig or DR5-Ig fusion protein overnight. […] The reactions are developed by TMB substrate buffer and measured by the Benchmark Microplate Reader (BioRad). The Kd values are estimated by the one-site binding model of non-linear regression using GraphPad Prism software (GraphPad Software, San Diego, Calif.).

OA synovial cells = assay: Apoptosis of primary synovial cells; format: cell-based, human; conditions: OA72M cells
Source text: (§2) Cell viability is the percentage of the cpm of treated cells versus the cpm of untreated cells.
(§3) The expression of DR5 on a panel of eight primary cultured synovial cells from patients with RA is compared with that on eight primary cultured synovial cells from patients with osteoarthritis (hereinafter referred to as “OA”). The eight human primary RA synovial cell cultures RA-1014, RA-1016, RA-1021, RA-512, RA-707, RA-811, RA-716, and RA-929 are kindly provided by Dr. M. Ohtsuki (Sankyo Co. Ltd., Tokyo, Japan) and cultured in DMEM supplemented with 10% FCS, penicillin, streptomycin, and glutamine. The […] OA synovial cell primary cell cultures are isolated from the synovial tissues of OA patients by a standard collagenase method and cultured under the same conditions. The passage number of all primary cells is under 10. The expression of DR5 is determined by FACs analysis as described in Example 5.

RA synovial cells = assay: Apoptosis of primary synovial cells; format: cell-based, human; conditions: RA-1014, RA-811, RA-716, RA929; high concentrations (>50 ng/ml)
Source text: as §2, §3

normal human hepatocytes = assay: Hepatocyte viability (ATPLite); format: cell-based
Source text: For 24-hour cell viability assays, fresh normal human hepatocytes in 96-well plates were purchased from In Vitro Technology (Baltimore, Md.). […] For 6-hour viability assays, normal hepatocytes or hepatocellular cancer cells are isolated from fresh surgical specimens collected from UAB Tissue Procurement Center. All reagents for isolation of human hepatocytes including hepatocytes perfusion buffer, digest medium, washing medium, and attachment medium were purchased from Gibco. The tissue slides are digested in the Hepatocyte Digest Medium at 37° C. with shaking (50 rpm) for one hour. The isolated hepatocytes are harvested by low speed centrifugation (50 g, 3 min), and washed with the Hepatocyte Washing Medium six times. Single cell suspension of hepatocytes are cultured in the Attachment Medium containing 10% FCS in 96-well Matrigel plates (BD) for six hours. Non-attached hepatocytes are removed by twice washing with pre-warmed attachment medium.

[3] = aggregate, number of animals (%)

Molecule: COc1cccc2c1C(=O)c1c(O)c3c(c(O)c1C2=O)C[C@@](O)(C(=O)CO)C[C@@H]3O[C@H]1C[C@H](N)[C@H](O)[C@H](C)O1 [Adriamycin, adriamycin]
- intense TUNEL stained cells (2LMP xenografts): 6%
- Complete Regressions No relapse (%) [1, 3]: 0
- Complete Regressions Total (%) [1, 3]: 0
- complete regressions of tumor ([1]; individual experiments (FIG. 25-27), animals): no complete regressions
- inhibition of tumor growth compared to untreated controls ([1]; individual experiments, TRA-8 200 μg i.p. x6, Kruskal-Wallis test): did not differ from controls

Molecule: CC(NC(=O)C(NC(=O)OCc1ccccc1)C(C)C)C(=O)NC(CC(=O)O)C(=O)CF (stereo not drawn) [Z-VAD] (Cbz-Val-Ala-Asp-CH2F; configuration not given here)
- inhibition of TRA-8-induced cell death (Jurkat cells): completely inhibited

Molecule: IL-1b: proinflammatory cytokine
- production of MMPs (MMP-1 and MMP-3): increased

Molecule: TNF-α
- production of MMPs (MMP-1 and MMP-3): increased
- NF-κb activation (NF-κb): activated in a time-dependent fashion

- binding activity to DR4 (DR4): bound to DR4
Molecule: TRAIL: soluble recombinant human TRAIL (aa 95 to 281) with FLAG tag, Alexis; used with anti-FLAG crosslinker
- susceptibility to apoptosis (H-9 cells): resistant
- susceptibility to apoptosis (Daudi): much less susceptible
- susceptibility to apoptosis (SKW6.4, EB-3, and Raji): very susceptible
- susceptibility to apoptosis [2]: resistant
- sensitivity to apoptosis (Hs683 and U251-MG): resistant
- apoptosis after treatment (primary B cells): did not undergo apoptosis
- susceptibility to apoptosis (Molt-4 and U937 cells): partially susceptible
- susceptibility to apoptosis (Jurkat and CEM-6): highly susceptible
- sensitivity to apoptosis (U87, U937 and Molt-4): exhibited sensitivity
- susceptibility to apoptosis (OA synovial cells): completely resistant
- cell death (RA synovial cells): ~100%
- production of MMPs (MMP-1 and MMP-3): not associated with increased release
- NF-κb activation (NF-κb): activated in a time-dependent fashion
- hepatocytes killed (normal human hepatocytes; 6-hour culture, 500 ng/ml TRAIL): Over 20%
- hepatocytes killed (normal human hepatocytes; 24-hour culture, 1 μg/ml, TRAIL plus crosslinker): more than 80%
- hepatocytes killed in the presence of cycloheximide (normal human hepatocytes; four-hour culture, 1 μg/ml cycloheximide): greater than 70%

B1: Fas ligand: recombinant soluble Fas ligand used with enhancer (protein, UniProt P48023 103-281, looked up)
extracellular domain: QLFHLQKELAELRESTSQMHTASSLEKQIGHPSPPPEKKELRKVAHLTGKSNSRSMPLEWEDTYGIVLLSGVKYKKGGLVINETGLYFVYSKVYFRGQSCNNLPLSHKVYMRNSKYPQDLVMMEGKMMSYCTTGQMWARSSYLGAVFNLTSADHLYVNVSELSLVNFEESQTFFGLYKL
modifications: extracellular domain
notes: recombinant soluble Fas ligand used with enhancer
- NF-κb activation (NF-κb): unable to induce NF-κb activation
